The record followed here is patent US10668039B2, “Methods for treatment of adenoid cystic carcinoma” (THE CHILDREN'S MEDICAL CENTER CORPORATION, priority 2016, dated 2020).

Structures are written as SMILES. Entries after “also recorded” stand apart in the source; their conditions may differ.

The test system of one assay is H3K27ac. Put plainly: ChIP-seq of short-term ACC x9 primagrafts, H3K27ac. Particulars: 3 days. The class given is in vivo, human. From the text: (§1) Primagraft experiments: For in vivo drug testing, ACC tumor fragments from host animals were implanted subcutaneously into the flank of nude mice (CRL: ATH/NU). Once tumors reached 125-250 mm3, mice were randomized to receive vehicle or drug diluted in 10:90 DMSO:10% hydroxypropyl-beta-cyclodextrin orally until controls reached a tumor volume endpoint of 1-2 cm3 (4-9 mice per group: x5M1 and x6, 4 treated vs. 9 vehicle controls; x9, 4 treated vs. 5 vehicle controls; x11, 5 treated vs. 8 vehicle controls). Mice were treated with ATRA (ACC x6 and x11: 4 mg/mL, 0.2 mL flat dose; ACC×9: 3 mg/mL, 0.2 mL flat dose) or isotretinoin (30 mg/mL, 0.2 mL flat dose). Tumor growth was monitored and mice weighed twice weekly and studies ended when final group reached tumor volume endpoint. No statistical methods were employed to determine the sample size, and no blinding of investigators was performed. […]
All ChIP-Seq datasets were aligned to UCSC build version hg19 of the human genome using Bowtie2 (version 2.2.1) with the following parameters: -end-to-end, —NO, -L20. […] ChIP-seq enrichment was determined as described previously in a 5 kb region (as counts per million) centered on the enriched peak regions (n=1,868) of the given MYB datasets. […]

A further assay has as its system mpx. Put plainly: In situ hybridization of whole embryos, mpx. The format is in vivo, zebrafish. To be noted: 10 μM, treated 48-72 hpf, fixed at 72 hpf. As to the method:
(§2) In situ hybridization: Wildtype AB embryos from the same clutch were treated between 48-72 hpf with 10 μM retinoic acid agonists diluted in E3, fixed at 72 hpf in 4% paraformaldehyde, and processed as previously described. CHT staining in the embryos was blindly scored as high, medium, or low, and summed across 3 independent experiments as done previously. Representative images were acquired on a Nikon ZMS 18 microscope.

The next assay relates to MYB. Put plainly: RNA-seq of short-term ACC x9 primagrafts, MYB. The class given is in vivo, human. To be noted: 3 days, n=3, p<0.05.
Description: as §1, with “performed. After long-term tumor growth inhibition studies were completed, the ATRA treated mice stopped receiving treatment and were maintained longer as indicated to monitor tumor maintenance after treatment cessation. For long-term tumor growth inhibition studies, ACC x6, x9, and x11 models were used and primagrafts collected at the completion of the study. Short-term kinetics studies were also undertaken with ACC x9 and x5M1 primagrafts involving 3 day ATRA treatments.” for “performed.”

In a further assay the test system is c-myb. Put plainly: In situ hybridization of whole embryos, c-myb. The format is in vivo, zebrafish. To be noted: 10 μM, treated 48-72 hpf, fixed at 72 hpf. As to the method:
In situ hybridization: In situ hybridization was done for c-myb as described in North (2007). Wildtype AB zebrafish embryos were treated with RAs in the E3 water at the indicated doses during 48-72 hpf, after which point they were fixed in 4% PFA. Qualitative scoring (number of embryos with altered number of HSCs scored) of c-myb positive cells was conducted by assessing the caudal hematopoietic tissue (CHT) region by the tail.
as §2

The subject of the next assay is runx1. Put plainly: In situ hybridization of whole embryos, runx1. The format is in vivo, zebrafish. Particulars: 10 μM, treated 48-72 hpf, fixed at 72 hpf. As to the method: as §2
Another assay relates to c-myb:GFP positive cells. Put plainly: Confocal imaging of CHT, c-myb:GFP positive cells. The class given is in vivo, zebrafish. To be noted: 10 μM, treated 48-72 hpf, imaged at 72 hpf. As to the method: Confocal imaging: Double transgenic c-myb:GFP; lyz:dsRed or c-myb:GFP; mpeg1:mCherry embryos from the same clutch were treated between 48-72 hpf (n=4 biological replicates per treatment group) with 10 μM ATRA diluted in E3. Live 72 hpf embryos were embedded in 0.8% low-melting point agarose containing 0.04 mg/mL Tricaine and imaged on a Nikon Eclipe Ti microscope with 20× Plan-Apo DIC N.A. 0.75. CHT cells were counted in Z-stack image projections processed on Imaris software (Bitplane).

In a further assay the test system is ACC PDX models. Put plainly: ATRA comparison TGI studies in ACC PDX models. The format is in vivo. To be noted: ATRA 8 mg/kg to 32 mg/kg; tamibarotene 2 mg/kg. As to the method:
The TGI studies in ACC PDX models were repeated in order to compare the original ATRA dose (3 or 4 mg/ml) against a more physiologically relevant dose of ATRA (8 mg/kg) and an alternative retinoid Tamibarotene (originally developed for ATRA-resistant cancer settings, approved in Japan and currently in development at Syros Pharmaceuticals).

The test system of another assay is U937 cells. Put plainly: U937 proliferation, CellTiter-Glo. The class given is cell-based, human. To be noted: 2 days (48 hours) of treatment, dose response. As to the method: Cell culture: U937 cells were grown in RPMI 1640 (Life Technologies), 10% heat inactivated FBS, and 1% Penicillin-Streptomycin (Invitrogen). CellTiter-Glo Luminescent Cell Viability Assay (Promega) was performed as per manufacturer's instructions. Cell viability was assessed at day 2.
Proliferation assays: U937 cells (ATCC) were grown in RPMI 1640 medium (Gibco) supplemented with 10% FBS and 1% Penicillin-Streptomycin (Gibco) and cultured in a 37° C. incubator with 5% CO2. U937 cells are listed in the database of commonly misidentified cell lines maintained by ICLAC, but authentic stocks are available and certified by ATCC based on DNA short-tandem repeat analysis. […] U937 cells were tested every other week for mycoplasma contamination using the MycoAlert Mycoplasma Detection Kit (Lonza) and consistently confirmed to be negative. Cells were seeded at an initial density of 1,150 cells/well (96 well plate) with chemicals at the concentrations indicated. After 48 hours, cell proliferation rates were determined using CellTiter-Glo (Promega) luminescent cell viability assay as per the manufacturer's instructions.

On to `CC(C=CC1=C(C)CCCC1(C)C)=CC=C/C(C)=C/C(=O)O` [ATRA, (E)-3,7-dimethyl-9-(2,6,6-trimethyl-1-cyclo-hexen-1-yl)-2,4,6,8-nonatetraenoic acid], for which the “H3K27ac at translocated enhancer sites” value in the assay on H3K27ac is listed as “decrease”. The “mpx expression (staining) in the CHT” value in the assay on mpx is listed as “no significant difference; also recorded: did not decrease staining”. Also, in the assay on MYB, the “decrease of MYB levels” value was around 20%. The “c-myb expression (staining) in the CHT” value in the assay on c-myb is reported as “significant decrease; also recorded: decreased staining”. For the same molecule, in the assay with runx1, the “runx1 expression (staining) in the CHT” value is “significant decrease; also recorded: decreased staining”. Moreover, the “number of c-myb:GFP+ cells in the CHT” value in the assay with c-myb:GFP positive cells is “significant decrease; also recorded: decreased”. Moreover, the “tumor growth inhibition in the PDX studies” value in the assay with ACC PDX models is “showed tumor growth inhibition”. Besides, the “U937 proliferation (CellTiter-Glo)” value in the assay on U937 cells is “inhibited”.
